# Data taken from publication PMC9854712 (Antioxidants, 2023).
# How the values were obtained:
# DU-145 cells = assay: MTT cell viability assay, DU-145; assay type: cell-based; conditions: Homo sapiens, DU-145, 48 h, read-out: Cell growth % at 10 µM, DU-145
# Procedure: (§1) The cell lines were obtained from the American Type Culture Collection (ATCC). Five tumor cell lines (MDA-MB-231, MCF-7, HCT116, HTB-54, and DU-145) and two non-tumorigenic cells (184B5 and BEAS-2B) were grown in RPMI 1640 medium (Gibco), and the HT-29 tumor cell line was grown in McCoy’s medium. Both mediums were supplemented with 10% fetal bovine serum (FBS; Gibco) and 1% antibiotics (10.00 units/mL penicillin and 10.00 μg/mL streptomycin; Gibco). Cells were preserved in tissue culture flasks at 37 °C and 5% CO2. The culture medium was replaced every three days.
# (§2) The effect of each compound on cell viability was tested using the MTT assay. […] Selected compounds were then tested at seven different concentrations (0.5–100 μM) in MCF-7, HCT116, HT-29, HTB-54, 184B5 and BEAS-2B cells. Cells were seeded at 10^4 per well onto flat-bottomed 96-well culture plates. They were treated with either DMSO or increasing concentration of the corresponding compound for 48 h. Then, they were incubated with 20 μL of 3-(4,5-dimethylthiazol-2-yl)-2,5-diphenyltetrazolium bromide (MTT) (2 mg /mL stock; Aldrich) for 2,5 h and analyzed for their ability to generate a purple formazan dye. These formazan crystals were dissolved in 50 μL of DMSO. The absorbance was measured at a wavelength of 550 nm and the ratio of viable cells was calculated.
# (§3) Results are expressed as cell viability % at 10 μM. Selectivity index were calculated as the ratio of the IC50 values determined for the non-malignant and the tumor cells in breast (IC50 (184B5)/IC50 (MCF-7)) and lung (IC50 (BEAS-2B)/IC50 (HTB-54)) cell lines. Data were obtained from at least three independent experiments performed in triplicates.
# AChE = biological target: T1, AChE (Rattus norvegicus, UniProt P37136); assay: AChE inhibition by Ellman's method (rat frontal cortex homogenate); assay type: biochemical; conditions: at 10^−6 M, Ellman's method
# T1 construct: from tissue; host or cells: frontal cortex of male Wistar rats (crude homogenate)
# T1 sequence (P37136 32-614): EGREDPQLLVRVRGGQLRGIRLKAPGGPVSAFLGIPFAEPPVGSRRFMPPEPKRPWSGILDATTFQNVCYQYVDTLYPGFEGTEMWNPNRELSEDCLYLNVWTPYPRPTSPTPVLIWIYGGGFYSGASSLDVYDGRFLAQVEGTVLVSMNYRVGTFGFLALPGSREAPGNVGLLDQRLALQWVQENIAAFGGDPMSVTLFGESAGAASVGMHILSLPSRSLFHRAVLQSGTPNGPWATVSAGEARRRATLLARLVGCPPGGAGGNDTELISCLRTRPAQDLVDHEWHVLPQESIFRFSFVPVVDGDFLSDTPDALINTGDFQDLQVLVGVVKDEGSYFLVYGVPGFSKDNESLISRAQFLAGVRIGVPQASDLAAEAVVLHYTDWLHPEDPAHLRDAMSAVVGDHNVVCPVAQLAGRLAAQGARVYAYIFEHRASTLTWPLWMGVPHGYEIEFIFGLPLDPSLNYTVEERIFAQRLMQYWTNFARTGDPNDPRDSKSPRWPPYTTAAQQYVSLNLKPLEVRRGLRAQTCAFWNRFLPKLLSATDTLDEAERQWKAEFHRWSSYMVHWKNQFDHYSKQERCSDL
# Procedure: Frontal cortex tissue obtained from male Wistar rats was homogenized in 39 volumes of 75 mM sodium phosphate buffer (pH 7.4). A mixture of 260 μL containing the compounds assessed, acetylthiocholine iodide and 5 μL tissue homogenate was incubated for 8 min. The reaction was then terminated by adding 50 μL 3% (w/v) sodium dodecyl sulphate followed by 50 μL 0.2% (w/v) 5,5′-dithio-bis(2-nitrobenzoic) acid to produce the yellow anion of 5-thio-2-nitro-benzoic-acid. The extent of the color production was measured spectrophotometrically at 405 nm using Multiskan Ex (Thermo Electron Corporation). […] Results are expressed as the mean ± SD and each experiment was repeated three times.
# MDA-MB-231 cells = assay: MTT cell viability assay, MDA-MB-231; assay type: cell-based; conditions: Homo sapiens, MDA-MB-231, 48 h, read-out: Cell growth % at 10 µM, MDA-MB-231
# Procedure: as §1, §2, §3
# HT-29 cells = assay: MTT cell viability assay, HT-29; assay type: cell-based; conditions: Homo sapiens, HT-29, 10 µM, 48 h, read-out: Cell growth % at 10 µM, HT-29
# Procedure: as §1, §2, §3
# HTB-54 cells = assay: MTT cell viability assay, HTB-54; assay type: cell-based; conditions: HTB-54; 10 µM, 48 h, MTT; read-out: Cell growth % at 10 µM, HTB-54
# Procedure: as §1, §2, §3
Compound,viability at 10 µM (DU-145 cells),inhibition at 1 µM (AChE),viability at 10 µM (MDA-MB-231 cells),viability at 10 µM (HT-29 cells),viability at 10 µM (HTB-54 cells)
"C#CC[Se]C(=O)c1cccnc1Cl [Compound 8b, Se-prop-2-ynyl 2-chloropyridine-3-carboselenoate]",77.1 ± 13.9%,17.1 ± 10.1%,92.9 ± 16.5%,87.7 ± 10.1%,99.4 ± 16.2%
"C=CC[Se]C(=O)C12CC3CC(CC(C3)C1)C2 [Compound 1a, Se-allyl adamantane-1-carboselenoate]",> 100%,19.3 ± 4.1%,92.6 ± 12.7%,91 ± 3.6%,72.1 ± 8.1%
"C=CC[Se]C(=O)c1ccc2c(c1)OCO2 [Compound 4a, Se-allyl benzodioxole-5-carboselenoate]",> 100%,2.5 ± 9.3%,97.3 ± 10.4%,33.6 ± 12.6%,67.6 ± 15.1%
"C#CC[Se]C(=O)c1ccno1 [Compound 12b, Se-prop-2-ynyl isoxazole-5-carboselenoate]",95.1 ± 12.3%,21.7 ± 7.9%,92.5 ± 15.1%,81.3 ± 11.1%,97.6 ± 7.1%
"C#CC[Se]C(=O)CCc1ccccc1 [Compound 6b, Se-prop-2-ynyl 3-phenylpropaneselenoate]",76.6 ± 12%,24.5 ± 6.7%,78.9 ± 8.4%,,83.4 ± 7.7%
"C#CC[Se]C(=O)C12CC3CC(CC(C3)C1)C2 [Compound 1b, Se-prop-2-ynyl adamantane-1-carboselenoate]",62.7 ± 7.7%,18 ± 7.9%,71.3 ± 8%,87.9 ± 12.1%,86 ± 11.6%
"C#CC[Se]C(=O)/C=C/c1ccccc1 [Compound 5b, Se-prop-2-ynyl 3-phenylprop-2E-eneselenoate]",70.5 ± 11.5%,26 ± 3.7%,64.8 ± 14.7%,80.8 ± 8.5%,79.8 ± 7.7%
"C=CC[Se]C(=O)c1ccccc1Nc1cccc(C(F)(F)F)c1 [Compound 19a, Se-allyl 2-(3-trifluoromethylphenyl)aminobenzoselenoate]",17 ± 2.9%,19.3 ± 2%,81.6 ± 9.7%,46 ± 8.7%,16.3 ± 7.6%
"C=CC[Se]C(=O)/C=C/c1ccccc1 [Compound 5a, Se-allyl 3-phenylprop-2E-eneselenoate]",83.3 ± 7.8%,8.7 ± 4.9%,91.1 ± 16.8%,87.6 ± 7.9%,46.1 ± 5.6%
"C#CC[Se]C(=O)c1ccco1 [Compound 11b, Se-prop-2-ynyl furan-2-carboselenoate]",70 ± 4.5%,27.2 ± 4.1%,99 ± 11.2%,> 100%,75.4 ± 15.5%
"C=CC[Se]C(=O)c1ccccc1Nc1cccc(C)c1C [Compound 18a, Se-allyl 2-(2,3-dimethylphenyl)aminebenzoselenoate]",74.7 ± 13.7%,18.4 ± 3.6%,85.9 ± 9.5%,71.5 ± 11.7%,40.9 ± 18.5%
"C=CC[Se]C(=O)c1cccs1 [Compound 9a, Se-allyl thiophene-2-carboselenoate]",48.6 ± 6.2%,25.9 ± 2.4%,89.4 ± 4.9%,99.5 ± 8.3%,64.8 ± 8.5%
